Source: patent US20100292185A1, “BETA-LACTAMASE INHIBITORS” (priority 2009, published 2010)
Where a name gives a salt, the structure may show the parent alone. Read-outs that look alike come from different tables or passages of the source.

Experiments:
SHV-5 β-lactamase = target: T1, SHV-5 β-lactamase (Klebsiella pneumoniae, UniProt P0A3M1); assay: β-lactamase enzyme inhibition assay (nitrocefin substrate), SHV-5; format: biochemical
T1 construct: expressed as native untagged proteins; made in house; host or cells: E. coli BL21(DE3)
T1 sequence (P0A3M1 22-286): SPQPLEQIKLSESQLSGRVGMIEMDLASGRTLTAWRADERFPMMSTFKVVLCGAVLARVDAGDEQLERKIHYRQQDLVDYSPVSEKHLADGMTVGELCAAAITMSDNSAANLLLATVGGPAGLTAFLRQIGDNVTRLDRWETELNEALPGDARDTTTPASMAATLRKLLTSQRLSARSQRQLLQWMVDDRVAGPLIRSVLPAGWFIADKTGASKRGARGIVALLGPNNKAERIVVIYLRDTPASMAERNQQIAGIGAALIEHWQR
Method in brief: (§1)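 Native untagged enzymes were expressed in E. coli BL21(DE3) and purified by cation exchange and gel filtration. Compounds (100–0.005 μM in PBS pH 7.0) were preincubated with enzyme for 10 min at 37 °C, then 100 μM nitrocefin (final) was added. IC50 was derived from the maximum hydrolysis rate at 486 nm, read kinetically for 10 min, relative to uninhibited controls.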

CTX-M15 β-lactamase = target: T2, CTX-M15 β-lactamase (Escherichia coli, UniProt Q9EXV5); assay: β-lactamase enzyme inhibition assay (nitrocefin substrate), CTXM-15; format: biochemical
T2 construct: expressed as native untagged proteins; made in house; host or cells: E. coli BL21(DE3)
T2 sequence (Q9EXV5 entry or part of it): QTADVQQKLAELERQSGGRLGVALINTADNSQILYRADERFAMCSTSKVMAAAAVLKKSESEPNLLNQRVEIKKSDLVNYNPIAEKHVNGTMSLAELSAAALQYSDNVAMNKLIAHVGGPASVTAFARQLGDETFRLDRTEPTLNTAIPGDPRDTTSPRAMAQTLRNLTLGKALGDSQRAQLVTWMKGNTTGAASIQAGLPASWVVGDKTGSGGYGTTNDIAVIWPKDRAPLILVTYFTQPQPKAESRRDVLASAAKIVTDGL
Method in brief: as §1

p99 AmpC β-lactamase = target: T3, p99 AmpC β-lactamase (Enterobacter cloacae, UniProt P05364); assay: β-lactamase enzyme inhibition assay (nitrocefin substrate), P99 AmpC; format: biochemical
T3 construct: expressed as native untagged proteins; made in house; host or cells: E. coli BL21(DE3)
T3 sequence (P05364 21-381): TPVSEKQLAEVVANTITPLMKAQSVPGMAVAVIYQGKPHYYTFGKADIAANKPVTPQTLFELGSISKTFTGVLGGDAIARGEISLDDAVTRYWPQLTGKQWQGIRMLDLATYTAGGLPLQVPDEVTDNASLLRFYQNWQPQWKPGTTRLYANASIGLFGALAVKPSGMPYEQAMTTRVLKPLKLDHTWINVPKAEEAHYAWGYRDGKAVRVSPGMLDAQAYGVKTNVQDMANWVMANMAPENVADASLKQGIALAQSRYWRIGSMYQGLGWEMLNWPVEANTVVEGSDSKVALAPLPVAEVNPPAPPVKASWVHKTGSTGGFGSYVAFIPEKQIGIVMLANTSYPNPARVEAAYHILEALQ
Method in brief: as §1

KPC-2 β-lactamase = target: T4, KPC-2 β-lactamase (Klebsiella pneumoniae, UniProt Q9F663); assay: β-lactamase enzyme inhibition assay (nitrocefin substrate), KPC-2; format: biochemical
T4 construct: expressed as native untagged proteins; made in house; host or cells: E. coli BL21(DE3)
T4 sequence (Q9F663 25-293 limits assumed): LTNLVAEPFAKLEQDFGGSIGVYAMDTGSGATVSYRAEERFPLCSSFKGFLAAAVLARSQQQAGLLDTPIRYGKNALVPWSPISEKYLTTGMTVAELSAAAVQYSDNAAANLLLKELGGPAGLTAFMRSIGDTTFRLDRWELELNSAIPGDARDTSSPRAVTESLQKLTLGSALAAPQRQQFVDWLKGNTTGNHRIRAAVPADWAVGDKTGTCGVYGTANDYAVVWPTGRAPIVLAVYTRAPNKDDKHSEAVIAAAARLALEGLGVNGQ
Method in brief: as §1

[1] = target: T5, VIM-2 metallo β-lactamase (Pseudomonas aeruginosa, UniProt Q9K2N0); assay: β-lactamase enzyme inhibition assay (nitrocefin substrate), VIM-2; format: biochemical; conditions: nitrocefin 100 μM, 37° C., PBS pH 7.0; read-out: VIM-2 IC50
T5 construct: made in house
Method in brief: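 VIM-2 was expressed untagged in E. coli BL21(DE3) and purified by two Q sepharose anion-exchange runs plus gel filtration to >90% purity. Compounds at 100–0.005 μM in PBS pH 7.0 were preincubated with enzyme for 10 min at 37° C, then nitrocefin was added at 100 μM final. Hydrolysis was followed kinetically at 486 nm for 10 min; IC50 is the concentration halving the initial rate relative to no-inhibitor wells.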

OXA-23 β-lactamase = target: T6, OXA-23 β-lactamase (Acinetobacter baumannii, UniProt Q9L4P2); assay: β-lactamase enzyme inhibition assay (nitrocefin substrate), OXA-23 crude extract; format: biochemical; conditions: nitrocefin 100 μM, 37° C., PBS pH 7.0; read-out: OXA-23 IC50
T6 construct: crude β-lactamase extracts were prepared from 20 ml overnight cultures; endogenous in cells; host or cells: Acinetobacter baumannii cells containing OXA-23 (crude freeze-thaw extract)
T6 sequence (Q9L4P2 18-273): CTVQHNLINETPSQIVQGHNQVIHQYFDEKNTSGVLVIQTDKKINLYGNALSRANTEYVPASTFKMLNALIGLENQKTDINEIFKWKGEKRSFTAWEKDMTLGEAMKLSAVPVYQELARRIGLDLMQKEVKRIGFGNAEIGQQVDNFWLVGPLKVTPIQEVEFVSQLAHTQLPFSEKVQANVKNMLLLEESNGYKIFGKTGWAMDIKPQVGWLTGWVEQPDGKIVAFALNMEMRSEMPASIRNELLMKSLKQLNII
Method in brief: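 Crude enzyme came from freeze-thaw extracts of mid-log OXA-23-carrying A. baumannii grown in MH-II broth at 37° C. Inhibitors (100–0.005 μM in PBS pH 7.0) were preincubated with the enzyme for 10 min at 37° C, then 100 μM nitrocefin (final) was added and read kinetically at 486 nm for 10 min. IC50 was taken from initial hydrolysis rates relative to uninhibited controls.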

[2] = system: E. coli expressing the Class A ESBL SHV-5; assay: In vitro antibacterial assay of β-lactamase inhibition (broth microdilution MIC), E. coli SHV-5; format: cell-based; conditions: in presence of Ceftazidime 8 μg/ml (Examples 1-56)
Method in brief: (§2)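 MIC read by eye after 16–20 h at 37° C, with CLSI-standard inocula of strains grown 3–5 h in CAMHB containing 50 μg/mL ampicillin. Compounds tested in final 2-fold dilutions from 8 to 0.015 μg/mL together with a β-lactam antibiotic.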

[3] = system: K. pneumoniae expressing the Class A Extended Spectrum Beta-Lactamase (ESBL) CTX-M-15; assay: In vitro antibacterial assay of β-lactamase inhibition (broth microdilution MIC), K. pneumoniae CTX-M-15; format: cell-based; conditions: in presence of Ceftazidime 8 μg/ml (Examples 1-56)
Method in brief: as §2

[4] = system: E. cloacae expressing the Class C P99+; assay: In vitro antibacterial assay of β-lactamase inhibition (broth microdilution MIC), E. cloacae P99+; format: cell-based; conditions: in presence of Ceftazidime 8 μg/ml (Examples 1-56)
Method in brief: as §2

[5] = system: K. pneumoniae expressing the Class A carbapenemase KPC-2; assay: microbe, parasite or virus in culture; format: cell-based; conditions: in presence of Ceftazidime 8 μg/ml (Examples 1-56)
Method in brief: as §2

[6] = system: P. aeruginosa expressing the Class B metallo β-lactamase VIM-2; assay: In vitro antibacterial assay of β-lactamase inhibition (broth microdilution MIC), P. aeruginosa VIM-2; format: cell-based; conditions: in presence of Ceftazidime 16 μg/mL (Examples 1-56)
Method in brief: as §2

[7] = nitrocefin 100 μM, 37° C., PBS pH 7.0, read-out: P99 AmpC IC50

Compound | IC50 (SHV-5 β-lactamase) [nM] | IC50 (CTX-M15 β-lactamase) [nM] | IC50 (p99 AmpC β-lactamase) [nM] | IC50 (KPC-2 β-lactamase) [nM] | IC50 [1] [nM] | IC50 (OXA-23 β-lactamase) [nM] | MIC of example compound, E. coli SHV-5 [2] [µg/mL] | MIC of example compound, K. pneumoniae CTX-M-15 [3] [µg/mL] | MIC of example compound, E. cloacae P99+ [4] [µg/mL] | MIC of example compound, K. pneumoniae KPC-2 [5] [µg/mL] | MIC of example compound, P. aeruginosa VIM-2 [6] [µg/mL] | IC50 (p99 AmpC β-lactamase; [7]) [nM] | IC50 (SHV-5 β-lactamase; nitrocefin 100 μM, 37° C., PBS pH 7.0, read-out: SHV-5 IC50) [nM] | IC50 (CTX-M15 β-lactamase; nitrocefin 100 μM, 37° C., PBS pH 7.0, read-out: CTXM-15 IC50) [nM] | IC50 (KPC-2 β-lactamase; nitrocefin 100 μM, 37° C., PBS pH 7.0, read-out: KPC-2 IC50) [nM]
Nc1cc(CC(=O)N[C@@H](Cc2cccc(C(=O)O)c2O)B(O)O)ccn1 [Example 45, (2R)-3-{2-[(2-amino-pyridin-4-yl-acetyl)-amino]-2-borono-ethyl}-2-hydroxy-benzoic acid formate] | 10 | 0.5 | 2 | 6 | 811 | 113 | 0.03 | 0.03 | 0.06 | 0.007 | >8 |  |  |  | 
NCCNCc1cccc(C(=O)N[C@@H](Cc2cccc(C(=O)O)c2O)B(O)O)c1 [Example 18, (1R)-[3-{(2-aminoethylamino)-methyl}-benzoylamino]-(3-carboxy-2-hydroxy)benzyl-methylboronic acid formate] | 257 | 1 |  | 14 | 99 | 41 | 8 | 0.5 | 0.25 | 0.06 | >8 | 0.3 |  |  | 
CC(=O)NCc1ccc(CC(=O)N[C@@H](Cc2cccc(C(=O)O)c2O)B(O)O)cc1 [Example 32, (1R)-[2-(4-acetylaminomethyl-phenyl)-acetylamino]-(3-carboxy-2hydroxy)benzyl-methylboronic acid] | 0.3 | 2 |  | 4 | > 1000 | 116 | 0.5 | 0.5 | >8 | 4 | >8 | 2 |  |  | 
NCc1ccc(CC(=O)N[C@@H](Cc2cccc(C(=O)O)c2O)B(O)O)cc1 [Example 30, (1R)-[2-(4-aminomethyl-phenyl)-acetylamino]-(3-carboxy-2hydroxy)benzyl-methylboronic acid formate] | 3 | 7 |  | 9 | 271 | 252 | 0.5 | 0.06 | 0.12 | 0.01 | >8 | 12 |  |  | 
(2R)-3-[(2-[(2-chloro-pyridin-4-yl-acetyl)-amino]-2-borono-ethyl]-2-hydroxy-benzoic acid hydrochloride [Example 47] |  |  |  |  | > 1000 | 132 | 0.25 | 0.25 | 1 | 0.03 | >8 | 5 | 1 | 2 | 2
CN(C)Cc1ccc(C(=O)N[C@@H](Cc2cccc(C(=O)O)c2O)B(O)O)cc1 [Example 4, 2(R)-3-[2-(4-(N,N-Dimethylaminomethyl)benzoylamino)-2-borono-ethyl]-2-hydroxy-benzoic acid formate salt] | 0.6 | 3 |  | 4 | > 1000 | 99 | 1 | 0.25 | 2 | 0.06 | >8 | 3 |  |  | 
Br.CC(C)(O/N=C(\C(=O)N[C@@H](Cc1cccc(C(=O)O)c1O)B(O)O)c1csc(N)n1)C(=O)O [Example 48, 3-{2(R)-[2-(2-amino-thiazol-4-yl)-2-(1-carboxy-1-methyl-ethoxyimino)-acetylamino]-2-borono-ethyl}-2-hydroxy-benzoic acid hydrobromide] | 4 | 12 |  | 70 | > 1000 | 670 | >8 | >8 | >8 | 2 | >8 | 10 |  |  | 
C/C(=N/O)C(=O)N[C@@H](Cc1cccc(C(=O)O)c1O)B(O)O [Example 54, 3-[2(R)-(2-hydroxyimino-propionylamino)-2-borono-ethyl]-2-hydroxy-benzoic acid] | 48 | 5 |  | 10 | > 1000 | 494 | 2 | 1 | 1 | 0.03 | >8 | 2 |  |  | 
Cl.O=C(N[C@@H](Cc1cccc(C(=O)O)c1O)B(O)O)c1ccc(N2CCNCC2)nc1 [Example 9, (2R)-3-{2-[(2-(1-piperazinyl)-pyridine-5-carbonyl)-amino]-2-borono-ethyl}-2-hydroxy-benzoic acid hydrochloride] | > 1000 | 83 |  | 6 | 242 | > 1000 | 4 | 1 | 0.25 | <0.01 | >8 | 2 |  |  | 
